From patent US9073940B2, “Tricyclic pyrazol amine derivatives” (MERCK SERONO SA, priority 2009, dated 2015)
Like-named read-outs stand apart in the source and are kept apart here.

How the values were obtained:
[1] = tested on: AKT phosphorylation (p-AKT Ser 473) in Ramos B-lymphocyte cell line; assay: Mechanistic on-target cell assay: flow cytometry of AKT phosphorylation after anti-human IGM stimulation; type: cell-based
Protocol: Mechanistic-On Target Cell Assay
The reaction was stopped by fixing the cells with Paraformaldehyde 4% (final) for 10 minutes at room temperature. Cells were washed once with Phosphate Buffer Saline (PBS), permabilized in PBS-Triton X-100 0.2% for 15 minutes at room temperature washed twice with PBS and once with PBS-4% serum. […] Cells were washed twice in PBS and resuspended in PBS. The cell suspension was passed on a FC500 flow cytometer (Beckman Coulter), gating on the IGM positive cells and measuring the AKT phosphorylation.

[2] = tested on: 4 PI3K isoforms (Human recombinant GST-PI3K); assay: PI3K scintillation proximity assay, best IC50 obtained with the four isoforms (alpha, beta, delta, gamma); type: biochemical; details: best IC50 obtained with the four isoforms of PI3K; read-out: Best potency measured on the 4 PI3K isoforms
Class I PI3-kinases = details: each of the Class I PI3-kinases, cited from earlier work
CK2 protein kinase = CK2 protein kinase (Homo sapiens (Human), UniProt P68400); details: cited from earlier work
CK2 protein kinase, sequence (P68400 whole entry): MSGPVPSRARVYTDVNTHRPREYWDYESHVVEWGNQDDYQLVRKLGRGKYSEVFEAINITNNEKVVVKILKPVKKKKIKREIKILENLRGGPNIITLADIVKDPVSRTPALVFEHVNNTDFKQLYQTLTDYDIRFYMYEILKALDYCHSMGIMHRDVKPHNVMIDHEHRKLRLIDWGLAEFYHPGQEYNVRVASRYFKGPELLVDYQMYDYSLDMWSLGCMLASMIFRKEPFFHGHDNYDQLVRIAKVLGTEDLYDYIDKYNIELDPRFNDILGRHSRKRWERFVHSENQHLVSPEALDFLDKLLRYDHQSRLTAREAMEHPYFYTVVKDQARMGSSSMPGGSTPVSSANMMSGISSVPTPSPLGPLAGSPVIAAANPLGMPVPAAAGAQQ

SMILES: O=C(c1nn([C@@H]2CCN(C3CCOCC3)C2)c2c1CS(=O)(=O)c1ccccc1-2)N1CCOCC1 (single isomer, unassigned) [Example 403]
- IC50 [1]: 214 nM
- IC50 [2]: 45 nM

SMILES: O=C(c1nn([C@H]2CCCN(CCN3CCOCC3)C2)c2c1CS(=O)(=O)c1cc(F)ccc1-2)N1CCOCC1 (stereo in doubt) [Example 472, 7-fluoro-3-(morpholin-4-ylcarbonyl)-1-[1-(2-morpholin-4-ylethyl)piperidin-3-yl]-1,4-dihydrothiochromeno[4,3-c]pyrazole 5,5-dioxide]
- IC50 [1]: 45 nM
- IC50 [2]: 14 nM

SMILES: COc1cccc2c1S(=O)(=O)Cc1c(C(=O)N3CCOCC3)nn(-c3ccccc3)c1-2 [Example 1, 6-methoxy-3-(morpholin-4-ylcarbonyl)-1-phenyl-1,4-dihydrothiochromeno[4,3-c]pyrazole 5,5-dioxide]
- IC50 [1]: 570 nM
- IC50 [2]: 459 nM

SMILES: Cc1ccc(-n2nc(C(=O)N3CCOCC3)c3c2-c2ccccc2S(=O)(=O)C3)cc1 [Example 7, 1-(4-methylphenyl)-3-(morpholin-4-ylcarbonyl)-1,4-dihydrothiochromeno[4,3-c]pyrazole 5,5-dioxide]
- IC50 [1]: 976 nM
- IC50 [2]: 690 nM

SMILES: O=C(c1nn(C2CCCCC2)c2c1CS(=O)(=O)c1ccccc1-2)N1CCOCC1 [Example 12, 1-cyclohexyl-3-(morpholin-4-ylcarbonyl)-1,4-dihydrothiochromeno[4,3-c]pyrazole 5,5-dioxide]
- IC50 [1]: 167 nM
- IC50 [2]: 136 nM

SMILES: O=C(c1nn(-c2ccccc2)c2c1CS(=O)(=O)c1c(F)cccc1-2)N1CCOCC1 [Example 15, 6-fluoro-3-(morpholin-4-ylcarbonyl)-1-phenyl-1,4-dihydrothiochromeno[4,3-c]pyrazole 5,5-dioxide]
- IC50 [1]: 364 nM
- IC50 [2]: 424 nM

SMILES: O=C(c1nn(-c2ccccc2)c2c1CS(=O)(=O)c1ccccc1-2)N1CCOCC1 [Example 33, 3-(morpholin-4-ylcarbonyl)-1-phenyl-1,4-dihydrothiochromeno[4,3-c]pyrazole 5,5-dioxide]
- IC50 [1]: 706 nM
- IC50 [2]: 244 nM

SMILES: Cn1nc(C(=O)N2CCOCC2)c2c1-c1ccccc1S(=O)(=O)C2 [Example 34, 1-methyl-3-(morpholin-4-ylcarbonyl)-1,4-dihydrothiochromeno[4,3-c]pyrazole 5,5-dioxide]
- IC50 [1]: 1800 nM
- IC50 [2]: 1750 nM

SMILES: CCn1nc(C(=O)N2CCOCC2)c2c1-c1ccccc1S(=O)(=O)C2 [Example 37, 1-ethyl-3-(morpholin-4-ylcarbonyl)-1,4-dihydrothiochromeno[4,3-c]pyrazole 5,5-dioxide]
- IC50 [1]: 493 nM
- IC50 [2]: 601 nM

SMILES: COc1ccc(Cn2nc(C(=O)N3CCOCC3)c3c2-c2ccccc2S(=O)(=O)C3)cc1 [Example 38, 1-(4-methoxybenzyl)-3-(morpholin-4-ylcarbonyl)-1,4-dihydrothiochromeno[4,3-c]pyrazole 5,5-dioxide]
- IC50 [1]: 942 nM
- IC50 [2]: 459 nM

SMILES: CCCn1nc(C(=O)N2CCOCC2)c2c1-c1ccccc1S(=O)(=O)C2 [Example 39, 3-(morpholin-4-ylcarbonyl)-1-propyl-1,4-dihydrothiochromeno[4,3-c]pyrazole 5,5-dioxide]
- IC50 [1]: 388 nM
- IC50 [2]: 641 nM

SMILES: O=C(c1nn(CCO)c2c1CS(=O)(=O)c1ccccc1-2)N1CCOCC1 [Example 46, 2-[3-(morpholin-4-ylcarbonyl)-5,5-dioxidothiochromeno[4,3-c]pyrazol-1(4H)-yl]ethanol]
- IC50 [1]: 680 nM
- IC50 [2]: 661 nM

SMILES: O=C(c1nn(CC2CCNCC2)c2c1CS(=O)(=O)c1ccccc1-2)N1CCOCC1 [Example 56, 3-(morpholin-4-ylcarbonyl)-1-(piperidin-4-ylmethyl)-1,4-dihydrothiochromeno[4,3-c]pyrazole 5,5-dioxide]
- IC50 [1]: 8150 nM
- IC50 [2]: 531 nM

SMILES: Nc1ccc2c(c1)-c1c(c(C(=O)N3CCOCC3)nn1-c1ccccc1)CS2(=O)=O [Example 65, 3-(Morpholin-4-ylcarbonyl)-1-phenyl-1,4-dihydrothiochromeno[4,3-c]pyrazol-8-amine 5,5-dioxide]
- IC50 [1]: 251 nM
- IC50 [2]: 368 nM

SMILES: CS(=O)(=O)NCc1ccc(-n2nc(C(=O)N3CCOCC3)c3c2-c2ccccc2S(=O)(=O)C3)cc1 [Example 66, N-{4-[3-(Morpholin-4-ylcarbonyl)-5,5-dioxidothiochromeno[4,3-c]pyrazol-1(4H)-yl]benzyl}methanesulfonamide]
- IC50 [1]: 942 nM
- IC50 [2]: 421 nM

SMILES: O=C(c1nn(C2CCCC2)c2c1CS(=O)(=O)c1ccccc1-2)N1CCOCC1 [Example 73, 1-Cyclopentyl-3-(morpholin-4-ylcarbonyl)-1,4-dihydrothiochromeno[4,3-c]pyrazole 5,5-dioxide]
- IC50 [1]: 317 nM
- IC50 [2]: 205 nM

SMILES: O=C(c1nn(C2CCCCC2)c2c1CS(=O)(=O)c1ncccc1-2)N1CCOCC1 [Example 79, 3-(Morpholin-4-ylcarbonyl)-1-cyclohexyl-1,4-dihydropyrazolo[3′,4′:4,5]thio pyrano[2,3-b]pyridine 5,5-dioxide]
- IC50 [1]: 492 nM
- IC50 [2]: 437 nM

SMILES: CN(C)Cc1ccc(-n2nc(C(=O)N3CCOCC3)c3c2-c2ccccc2S(=O)(=O)C3)cc1 [Example 226, N,N-Dimethyl-1-{4-[3-(morpholin-4-ylcarbonyl)-5,5-dioxidothiochromeno[4,3-c]pyrazol-1(4H)-yl]phenyl}methanamine]
- IC50 [1]: 492 nM
- IC50 [2]: 43 nM

SMILES: O=c1cc(N2CCOCC2)oc2c(-c3ccccc3)cccc12 [LY294002]
- IC50 (Class I PI3-kinases; read-out: IC50 against each of these PI3-kinases): 15000 to 20000 nM
- IC50 (CK2 protein kinase): 5000 to 10000 nM

SMILES: COC[C@H]1OC(=O)c2coc3c2[C@@]1(C)C1=C(C3=O)[C@@H]2CCC(=O)[C@@]2(C)C[C@H]1OC(C)=O [Wortmannin]
- IC50 (Class I PI3-kinases; read-out: IC50 against each of the various Class I PI3-kinases): 1 to 10 nM
